Tested on: client-owned horses
Assay: Owner assessment of change in quality of life (QOL) in a randomized, double-blinded, placebo-controlled clinical study
Assay type: in vivo, horse
Excerpt: The amelioration of the QOL in equines can be measured by an assessment, which can be performed for example by the owner or the veterinarian or by an animal care taker or by any other person, preferably by the owner. The owners of the horses are asked to assess the quality of life of their horses over a certain period of time, e.g. several days, such as 10, 14 or 21 days, compared to a reference time point, e.g. day 0. For assessment of QOL the owner is asked to consider certain QOL parameters such as attitude, energy level, human interactions, general behavior using a rating scheme. This assessment preferably relates to a certain period of time such as for example the last 24 hours in comparison to a previous point in time for example day 0. One possible rating scheme is to ask whether QOL has improved, stayed the same or worsened compared to day 0.
The study is conducted as a multicenter prospective, randomized, double-blinded, placebo-controlled clinical study with parallel group design according to Good Clinical Practice (GCP) guidelines with client-owned horses.
Horses are examined before (Day 0) and at the end of treatment with the study drug (Day 10±1) by the study investigators. Physical examination, efficacy and QOL assessment, as well as blood sample collection is performed during the visits. The owners of included horses are also contacted by telephone on Day 5. […]

SMILES: CC(C)C(=O)OCC(=O)[C@@]12O[C@H](C3CCCCC3)OC1CC1C3CCC4=CC(=O)C=C[C@]4(C)C3[C@@H](O)C[C@@]12C (stereo partly drawn) [ciclosenide, (1 ip,16a)-16,17-[[(R)-Cyclohexylmethylene]bis(oxy)]-11-hydroxy-21-(2-methyl-1-oxopropoxy)pregna-1,4-diene-3,20-dione]
- percentage of owners acknowledging an improvement in their horse's quality of life compared to Day 0 (after 10(±1) days of treatment, 8 actuations twice daily for 5 days, then 12 actuations once daily for 5 days): 69.33%
- percentage of owners reporting that the quality of life of their horse improved compared to Day 0 (after five days of treatment, inhaled via EquiHaler, 8 actuations (343 μg each) twice daily): 60.19%
